A short description of data set [1]: Half life in CD1 mouse blood at 1 mg/kg, iv administered as bolus dose measured up to 7 hrs by UPLC/MS/MS spectrometry analysis. In kind it is ADME, organism-based.
Data set [2] in a line: Blood clearance in CD1 mouse at 1 mg/kg, iv administered as bolus dose measured up to 7 hrs by UPLC/MS/MS spectrometry analysis. In kind it is ADME, organism-based.
Data set [3] in a line: Volume of distribution at steady state in CD1 mouse at 1 mg/kg, iv administered as bolus dose measured up to 7 hrs by UPLC/MS/MS spectrometry analysis. The format is ADME, organism-based. Conditions: in vivo, read-out: Vdss.
The target in data set [4] is T1, Autotaxin (Homo sapiens, UniProt Q13822). Briefly: Inhibition of ATX in human plasma assessed as decrease in hydrolysis of lysophosphatidylcholine by measuring choline release after 24 hrs by horseradish peroxidase/choline oxidase-coupled assay. The format is cell-free.
Data set [5] can be described thus: Intrinsic clearance in CD1 mouse liver microsomes assessed per gram of liver at 1 uM in presence of NADPH regenerating system measured up to 45 mins by UPLC/MS/MS analysis. In kind it is ADME. As to conditions: 0.75 h. For orientation: Liver microsomes are a subcellular fraction often used to study metabolism.
Data set [6] has as its target T1, Autotaxin. Briefly: Inhibition of human recombinant ATX using Rac-1-Palmitoyl-glycero-3-phosphocholine as substrate incubated for 2 hrs using ADHP fluorogenic peroxidase substrate by horseradish peroxidase/choline oxidase-coupled assay.
A short description of data set [7]: Half life in CD1 mouse blood at 0.5 mg/kg, iv administered as bolus dose measured up to 7 hrs by UPLC/MS/MS spectrometry analysis. In kind it is ADME, organism-based.
Data set [8] is described as follows: Volume of distribution at steady state in CD1 mouse at 0.5 mg/kg, iv administered as bolus dose measured up to 7 hrs by UPLC/MS/MS spectrometry analysis. The format is ADME, organism-based. As to conditions: in vivo, read-out: Vdss.
A short description of data set [9]: Blood clearance in CD1 mouse at 0.5 mg/kg, iv administered as bolus dose measured up to 7 hrs by UPLC/MS/MS spectrometry analysis. In kind it is ADME, organism-based.
Data set [10] is described as follows: Intrinsic clearance in human liver microsomes assessed per gram of liver at 1 uM in presence of NADPH regenerating system measured up to 45 mins by UPLC/MS/MS analysis. As to conditions: 0.75 h. In kind it is ADME.
In data set [11] the target is T1, Autotaxin. Briefly: Inhibition of human recombinant ATX using FS-3 as substrate incubated in dark for 45 mins by fluorescence assay.

From ChEMBL document CHEMBL3864162, “Discovery of potent inhibitors of the lysophospholipase autotaxin” (Bioorg Med Chem Lett, 2016) come the findings set out here.

By half-life is commonly meant how long it takes for the measured level to halve. Lower therefore signals fast loss. What is called clearance is the rate of elimination divided by the concentration. As usually defined, the IC50 is the concentration that gives 50% inhibition.

In data set [1], `C[C@H](NC(=O)NCc1nc2cccnc2n1Cc1ccc(F)cc1)c1ccc(F)cc1` had a half-life of 9 min. The compound also had a clearance in data set [2] of 67 mL/min/kg. For the same compound, the Vd in [3] was 0.3 L/kg. The IC50 in [4] stood at 1050 nM. The CLH in [5] stood at 10 mL/min/g.

As for `C[C@H](NC(=O)COc1nc2cccnc2n1Cc1ccc(F)cc1)c1ccc(F)cc1`, the IC50 in [4] worked out at 821 nM. Moreover, the CLH in [5] was determined as 15.6 mL/min/g.

`C[C@H](NC(=O)CCc1nc2cccnc2n1Cc1ccc(OC(F)F)cc1)c1ccc(Cl)cc1` gave a half-life in data set [1] of 22.2 min. The clearance in [2] stood at 62 mL/min/kg. Besides, in [3], the Vd turned out to be 0.4 L/kg. Moreover, the IC50 in data set [6] amounted to 2 nM; in data set [4], 44 nM. The CLH in data set [5] was found to be 52.8 mL/min/g.

For `COc1ccc(Cn2c(CCC(=O)N[C@H](C)c3ccccc3)nc3cccnc32)cc1`, in data set [4], the half-inhibitory concentration (IC50) was 8500 nM.

Compound `C[C@H](NC(=O)CCc1nc2cccnc2n1Cc1ccc(C(F)(F)F)cc1)c1ccc(Cl)cc1` showed a half-life in [1] of 19.8 min. This compound also registered a clearance in data set [2] of 72 mL/min/kg. The Vd in data set [3] is 0.88 L/kg. Also, in data set [4], the IC50 came out at 16 nM. In data set [5], the CLH is 26.5 mL/min/g.

Compound `C[C@H](NC(=O)COc1nc2cccnc2n1Cc1ccc(OC(F)(F)F)cc1)c1ccc(Cl)cc1` gave a half-life in data set [7] of 12 min. The Vd in data set [8] was 0.4 L/kg. Besides, the clearance in data set [9] came out at 78 mL/min/kg. Besides, the IC50 in [4] was 99 nM. In data set [5], the CLH was 10.8 mL/min/g.

As for `C[C@H](NC(=O)C[S+]([O-])c1nc2cccnc2n1Cc1ccc(OC(F)(F)F)cc1)c1ccc(F)cc1` (stereo in doubt; 26b), the IC50 in data set [6] was determined as 178 nM; in data set [4], 207 nM. In addition, the CLH in [5] was found to be 19.8 mL/min/g.

The compound `O=C(CCc1nc2cccnc2n1Cc1ccc(F)cc1)N[C@@H](CO)c1ccc(Cl)cc1` showed a half-life in [1] of 9.6 min. This compound gave a clearance in data set [2] of 73 mL/min/kg. Also, the Vd in data set [3] turned out to be 0.2 L/kg. For the same compound, the IC50 in data set [6] amounted to 5 nM; in data set [4], 26 nM. Moreover, the CLH in data set [5] came out at 4.4 mL/min/g.

With `C[C@H](NC(=O)CCc1nc2ccncc2n1Cc1ccc(OC(F)(F)F)cc1)c1ccc(Cl)cc1`, the half-life in data set [1] is 8.4 min. Besides, the clearance in [2] turned out to be 73 mL/min/kg. Besides, the Vd in [3] stood at 0.2 L/kg. The IC50 in [4] was 34 nM. Moreover, in [5], the CLH was 18.1 mL/min/g.

`C[C@H](NC(=O)CCc1nc2cccnc2n1Cc1ccc(F)cc1)c1ccc(F)cc1`: the IC50 in [4] was determined as 444 nM.

As for `C[C@H](NC(=O)CCc1nc2cccnc2n1Cc1ccccc1)c1ccccc1`, the CLH was determined as 62 mL/min/g in [10] and 21.4 mL/min/g in data set [5]. Moreover, in data set [4], the IC50 was 288 nM.

With `O=C(CCc1nc2cccnc2n1Cc1ccccc1)NCc1ccc(Cl)cc1`, the IC50 in [4] turned out to be 5800 nM. Also, the CLH in data set [5] is 15.3 mL/min/g.

With `C[C@H](NC(=O)OCc1nc2cccnc2n1Cc1ccc(F)cc1)c1ccc(F)cc1`, the IC50 turned out to be 366 nM in data set [6] and 3290 nM in [4]. The CLH in data set [5] was 21.8 mL/min/g.

Compound `COc1ccc(Cn2c(CCC(=O)N[C@@H](C)c3ccccc3)nc3cccnc32)cc1` had a half-life in data set [7] of 10.2 min. For the same compound, the CLH in data set [10] came out at 21.4 mL/min/g; in [5] it was 35 mL/min/g. The Vd in data set [8] was 0.19 L/kg. This compound also showed a clearance in data set [9] of 75 mL/min/kg. Also, in [4], the IC50 was determined as 318 nM.

Regarding `C[C@H](NC(=O)NCc1nc2cccnc2n1Cc1ccc(F)cc1)c1ccc(Cl)cc1`, in [4], the IC50 was determined as 414 nM.

In the case of `O=C(CCc1nc2cccnc2n1Cc1ccccc1)NCc1cccc(F)c1`, the IC50 in data set [6] came to 1250 nM.

`O=C(CCc1nc2cccnc2n1Cc1ccccc1)NCc1ccccn1`: the IC50 in data set [6] came out at 11000 nM.

Regarding `COc1cccc(CNC(=O)CCc2nc3cccnc3n2Cc2ccccc2)c1`, in data set [6], the IC50 is 2970 nM.

For the compound `O=C(CCc1nc2cccnc2n1Cc1ccccc1)NCc1ccccc1F`, in data set [6], the IC50 came out at 1250 nM.

With `O=C(CCc1nc2cccnc2n1Cc1ccccc1)NCc1ccccc1`, the IC50 in data set [6] amounted to 1240 nM.

The compound `C[C@H](NC(=O)C[S+]([O-])c1nc2cccnc2n1Cc1ccc(OC(F)(F)F)cc1)c1ccc(F)cc1` (stereo in doubt; 26a) had a half-life in data set [1] of 13.2 min. The same compound showed a clearance in data set [2] of 82 mL/min/kg. The Vd in data set [3] came to 0.2 L/kg. For the same compound, the IC50 in data set [6] stood at 10 nM; in data set [4], 178 nM. For the same compound, the CLH in [5] amounted to 28.6 mL/min/g.

With `C[C@H](NC(=O)CSc1nc2cccnc2n1Cc1ccc(OC(F)(F)F)cc1)c1ccc(F)cc1`, in data set [1], the half-life was 12 min. This compound also returned a clearance in data set [2] of 81 mL/min/kg. Moreover, the Vd in data set [3] was found to be 0.3 L/kg. Moreover, in data set [4], the IC50 came to 19 nM. The CLH in [5] was 71.5 mL/min/g.

Turning to `COc1ccc(CNC(=O)CCc2nc3cccnc3n2Cc2ccccc2)cc1`, the half-inhibitory concentration (IC50) in data set [11] was determined as 40 nM; in [4], 8870 nM.

For `O=C(CCc1nc2cccnc2n1Cc1ccccc1)NCC1CCCCC1`, the CLH in data set [10] came to 17.4 mL/min/g; in data set [5], 30.8 mL/min/g. Further, the IC50 was 444 nM in data set [6] and 9700 nM in data set [4].

On to `O=C(CCc1nc2cccnc2n1Cc1ccccc1)NCCc1ccccc1`, for which the IC50 in [6] was 3440 nM.

For `O=C(CCc1nc2cccnc2n1Cc1ccccc1)NCc1ccc(F)cc1`, the CLH amounted to 41.2 mL/min/g in data set [10] and 23.9 mL/min/g in [5].

As for `C[C@H](NC(=O)CCc1nc2ccncc2n1Cc1ccc(F)cc1)c1ccc(F)cc1`, the IC50 in data set [4] amounted to 333 nM.

With `O=C(CCc1nc2cccnc2n1Cc1ccccc1)NCc1ccsc1`, the IC50 in [6] stood at 2430 nM.

As to `CS(=O)(=O)c1ccc(CNC(=O)CCc2nc3cccnc3n2Cc2ccccc2)cc1`, the IC50 in data set [6] is 6770 nM.

With `C[C@H](NC(=O)CCc1nc2ccncc2n1Cc1ccc(OC(F)(F)F)cc1)c1ccc(F)cc1`, the IC50 in data set [4] stood at 32 nM.

Take `COc1ccc(Cn2c(CCC(=O)N[C@@H](C)c3ccc(Cl)cc3)nc3cccnc32)cc1`: the IC50 in data set [4] was 215 nM.
